Experiments:
human EP3 receptor = target: T1, human EP3 receptor (Homo sapiens, UniProt P43115); assay: Binding ability to human EP receptors ([3H]PGE2 displacement), EP3; details: membranes from cells stably transfected with human EP3 receptor; 2.5 nM [3H]PGE2; Cheng-Prusoff from IC50; read-out: pKi EP3 (converted)
T1 construct: expressed in transfected cells
T1 sequence (P43115 1-390): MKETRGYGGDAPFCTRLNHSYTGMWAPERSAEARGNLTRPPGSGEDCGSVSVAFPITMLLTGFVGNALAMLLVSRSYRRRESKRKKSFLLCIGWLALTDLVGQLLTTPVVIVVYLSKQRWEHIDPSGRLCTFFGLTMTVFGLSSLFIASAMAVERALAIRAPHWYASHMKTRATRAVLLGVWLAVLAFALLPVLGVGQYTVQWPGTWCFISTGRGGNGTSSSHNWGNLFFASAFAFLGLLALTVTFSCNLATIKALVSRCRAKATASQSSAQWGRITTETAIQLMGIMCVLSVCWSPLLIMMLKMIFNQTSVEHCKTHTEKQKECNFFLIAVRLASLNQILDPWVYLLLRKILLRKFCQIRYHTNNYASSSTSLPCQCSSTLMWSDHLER
Procedure: (§1) Membranes were prepared from cells stably transfected with human EP receptor cDNA. In brief, cells were cultured to confluency, scraped from culture flasks, and centrifuged (800 g, 8 minutes, 4° C.). Cells were twice washed in ice cold homogenisation buffer containing 10 mMTris-HCl, 1 mM EDTA.2Na, 250 mM sucrose, 1 mM PMSF, 0.3 mM indomethacin, pH 7.4, homogenised and re-centrifuged as before. The supernatant was stored on ice and pellets re-homogenised and re-spun. Supernatants were pooled and centrifuged at 40000 g, 10 minutes, 4° C. Resultant membrane pellets were stored at −80° C. until use.
(§2) For assay, membranes expressing human EP4, EP3, EP2 or EP1 receptors were incubated in Millipore (MHVBN45) plates containing assay buffer, radiolabelled [^3H]PGE2 and 0.1 to 10 000 nM concentrations of compounds. Incubations were performed at suitable temperatures and for suitable times to allow equilibrium to be reached. Non-specific binding was determined in the presence of 10 uM PGE2. Bound and free radiolabel was separated by vacuum manifold filtration using appropriate wash buffers, and bound radiolabel was determined by scintillation counting. Constituents of each of the buffers are included in table 1 below.
(§3) The affinity or pKi of each compound for each receptor was calculated from the concentration causing 50% radioligand displacement (IC50) using the Cheng-Prusoff equation: […]

human EP2 receptor = target: T2, human EP2 receptor (Homo sapiens, UniProt P43116); assay: Binding ability to human EP receptors ([3H]PGE2 displacement), EP2; details: membranes from cells stably transfected with human EP2 receptor; 3 nM [3H]PGE2; Cheng-Prusoff from IC50; read-out: pKi EP2 (converted)
T2 construct: expressed in transfected cells
Procedure: as §1, §2, §3

human EP4 receptor = target: T3, human EP4 receptor (Homo sapiens, UniProt P35408); assay: Binding ability to human EP receptors ([3H]PGE2 displacement), EP4; details: membranes from cells stably transfected with human EP4 receptor; 1 nM [3H]PGE2; Cheng-Prusoff from IC50; read-out: pKi EP4 (converted)
T3 construct: expressed in transfected cells
Procedure: as §1, §2, §3

T2 sequence (P43116 whole entry): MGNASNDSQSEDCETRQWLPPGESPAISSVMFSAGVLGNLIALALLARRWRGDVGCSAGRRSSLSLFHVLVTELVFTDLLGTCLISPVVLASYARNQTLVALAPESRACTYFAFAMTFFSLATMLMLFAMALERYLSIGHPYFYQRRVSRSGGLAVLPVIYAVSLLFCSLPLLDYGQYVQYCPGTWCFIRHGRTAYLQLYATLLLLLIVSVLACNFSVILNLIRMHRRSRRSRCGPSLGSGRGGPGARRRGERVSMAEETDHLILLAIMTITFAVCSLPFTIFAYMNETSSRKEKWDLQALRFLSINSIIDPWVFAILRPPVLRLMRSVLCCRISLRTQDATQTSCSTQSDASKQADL
T3 sequence (P35408 whole entry): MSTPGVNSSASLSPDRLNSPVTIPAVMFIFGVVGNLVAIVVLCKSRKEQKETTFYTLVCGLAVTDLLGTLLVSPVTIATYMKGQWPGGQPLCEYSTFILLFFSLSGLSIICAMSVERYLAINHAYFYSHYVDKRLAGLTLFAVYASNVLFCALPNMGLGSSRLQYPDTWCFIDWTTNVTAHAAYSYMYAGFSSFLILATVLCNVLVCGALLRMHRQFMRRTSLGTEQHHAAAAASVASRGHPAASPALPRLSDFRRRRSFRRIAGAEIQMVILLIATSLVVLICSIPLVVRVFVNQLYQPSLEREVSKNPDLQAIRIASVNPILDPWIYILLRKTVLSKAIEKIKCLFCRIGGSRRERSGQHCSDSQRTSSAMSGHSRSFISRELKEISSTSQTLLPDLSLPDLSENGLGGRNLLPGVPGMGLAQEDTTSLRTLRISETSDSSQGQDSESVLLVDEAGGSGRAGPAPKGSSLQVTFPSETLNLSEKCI

Q: `COc1ccc(-c2cc(C(=O)Nc3ccc(CC(=O)O)cc3)c(C(F)(F)F)o2)cc1` [Compound 4, (4-{[5-(4-Methoxy-phenyl)-2-trifluoromethyl-furan-3-carbonyl]-amino}-phenyl)-acetic acid] was tested. Which Ki (human EP3 receptor) did it give?
A: > 10 µM

Q: And the Ki (human EP2 receptor)?
A: > 10 µM

Q: What about the Ki (human EP4 receptor) of the same molecule?
A: < 10 µM

Q: Which results are given for `COc1ccc(-c2cc(C(=O)Nc3ccc(CC(=O)O)cc3)c(C)o2)cc1` [Compound 6, (4-{[5-(4-Methoxy-phenyl)-2-methyl-furan-3-carbonyl]-amino}-phenyl)-acetic acid]?
A: Ki (human EP3 receptor): > 10 µM; Ki (human EP2 receptor): > 10 µM; Ki (human EP4 receptor): < 1 µM

Q: How did the Ki (human EP3 receptor) turn out when `O=C(O)Cc1ccc(NC(=O)c2coc(-c3ccccc3)c2)cc1` [Compound 10, {4-[(5-Phenyl-furan-3-carbonyl)-amino]-phenyl}-acetic acid] was run?
A: > 10 µM

Q: And the Ki (human EP2 receptor)?
A: > 3.16 µM

Q: And the Ki (human EP4 receptor)?
A: < 1 µM

Q: What does the source list for `O=C(O)Cc1ccc(NC(=O)c2coc(-c3ccc(OC(F)F)cc3)c2)cc1` [Compound 13, (4-{[5-(4-Difluoromethoxy-phenyl)-furan-3-carbonyl]-amino}-phenyl)-acetic acid]?
A: Ki (human EP3 receptor): > 10 µM; Ki (human EP2 receptor): > 10 µM; Ki (human EP4 receptor): < 1 µM

Q: For `Cc1oc(-c2ccc(OC(F)F)cc2)cc1C(=O)Nc1ccc(CC(=O)O)cc1` [Compound 18, (4-{[5-(4-Difluoromethoxy-phenyl)-2-methyl-furan-3-carbonyl]-amino}-phenyl)-acetic acid], which Ki (human EP3 receptor) is on record?
A: > 10 µM

Q: And the Ki (human EP2 receptor)?
A: > 3.16 µM

Q: And the Ki (human EP4 receptor)?
A: < 1 µM

Q: With `Cc1cc(C(=O)NCc2ccc(C(=O)O)cc2)c(-c2ccccc2)o1` [Compound 20, 4-{[(5-Methyl-2-phenyl-furan-3-carbonyl)-amino]-methyl}-benzoic acid] as the molecule, how does the Ki (human EP3 receptor) read?
A: > 10 µM

Q: What about the Ki (human EP2 receptor) of the same molecule?
A: > 10 µM

Q: What about the Ki (human EP4 receptor) of the same molecule?
A: < 10 µM

Q: For `Cc1oc(-c2ccccc2)cc1C(=O)Nc1ccc(CC(=O)NS(=O)(=O)c2ccccc2)cc1` [Compound 21, 2-Methyl-5-phenyl-furan-3-carboxylic acid [4-(2-benzenesulfonylamino-2-oxo-ethyl)-phenyl]-amide], which Ki (human EP3 receptor) is on record?
A: > 10 µM

Q: And the Ki (human EP2 receptor)?
A: > 1 µM

Q: And the Ki (human EP4 receptor)?
A: < 0.1 µM

Q: For `COc1ccc(-c2cc(C(=O)Nc3ccc(CC(=O)NS(=O)(=O)c4ccccc4)cc3)c(C(F)(F)F)o2)cc1` [Compound 22, 5-(4-Methoxy-phenyl)-2-trifluoromethyl-furan-3-carboxylic acid [4-(2-benzenesulfonylamino-2-oxo-ethyl)-phenyl]-amide], which Ki (human EP3 receptor) is on record?
A: > 10 µM

Q: And the Ki (human EP2 receptor)?
A: > 1 µM

Q: And the Ki (human EP4 receptor)?
A: < 1 µM

Q: `COc1ccc(-c2cc(C(=O)Nc3ccc(CC(=O)NS(=O)(=O)c4ccccc4)cc3)c(C)o2)cc1` [Compound 23, 5-(4-Methoxy-phenyl)-2-methyl-furan-3-carboxylic acid [4-(2-benzenesulfonylamino-2-oxo-ethyl)-phenyl]-amide] was tested. Which Ki (human EP3 receptor) did it give?
A: > 10 µM

Q: What about the Ki (human EP2 receptor) of the same molecule?
A: > 1 µM

Q: And the Ki (human EP4 receptor)?
A: < 0.1 µM

Q: How did the Ki (human EP3 receptor) turn out when `Cc1ccccc1S(=O)(=O)NC(=O)Cc1ccc(NC(=O)c2coc(-c3ccccc3)c2)cc1` [Compound 24, 5-Phenyl-furan-3-carboxylic acid {4-[2-oxo-2-(toluene-2-sulfonylamino)-ethyl]-phenyl}-amide] was run?
A: > 10 µM

Q: What about the Ki (human EP2 receptor) of the same molecule?
A: > 0.1 µM

Q: And the Ki (human EP4 receptor)?
A: < 1 µM

Q: What does the source list for `Cc1oc(-c2ccc(OC(F)F)cc2)cc1C(=O)Nc1ccc(CC(=O)NS(=O)(=O)c2ccccc2)cc1` [Compound 25, 5-(4-Difluoromethoxy-phenyl)-2-methyl-furan-3-carboxylic acid [4-(2-benzenesulfonylamino-2-oxo-ethyl)-phenyl]-amide]?
A: Ki (human EP3 receptor): > 10 µM; Ki (human EP2 receptor): > 1 µM; Ki (human EP4 receptor): < 0.1 µM

Q: Which Ki (human EP3 receptor) does the source give for `Cc1ccccc1S(=O)(=O)NC(=O)Cc1ccc(NC(=O)c2cc(-c3ccc(OC(F)F)cc3)oc2C)cc1` [Compound 26, 5-(4-Difluoromethoxy-phenyl)-2-methyl-furan-3-carboxylic acid {4-[2-oxo-2-(toluene-2-sulfonylamino)-ethyl]-phenyl}-amide] here?
A: > 10 µM

Q: What about the Ki (human EP2 receptor) of the same molecule?
A: > 0.316 µM

Q: What about the Ki (human EP4 receptor) of the same molecule?
A: < 0.1 µM

Q: `CCCS(=O)(=O)NC(=O)Cc1ccc(NC(=O)c2cc(-c3ccc(OC(F)F)cc3)oc2C)cc1` [Compound 27, 5-(4-Difluoromethoxy-phenyl)-2-methyl-furan-3-carboxylic acid {4-[2-oxo-2-(propane-1-sulfonylamino)-ethyl]-phenyl}-amide] was tested. Which Ki (human EP3 receptor) did it give?
A: > 10 µM

Q: And the Ki (human EP2 receptor)?
A: > 10 µM

Q: And the Ki (human EP4 receptor)?
A: < 1 µM

Q: For `Cc1noc(C)c1S(=O)(=O)NC(=O)Cc1ccc(NC(=O)c2cc(-c3ccc(OC(F)F)cc3)oc2C)cc1` [Compound 28, 5-(4-Difluoromethoxy-phenyl)-2-methyl-furan-3-carboxylic acid {4-[2-(3,5-dimethyl-isoxazole-4-sulfonylamino)-2-oxo-ethyl]-phenyl}-amide], which Ki (human EP3 receptor) is on record?
A: > 10 µM

Q: And the Ki (human EP2 receptor)?
A: > 10 µM

Q: What about the Ki (human EP4 receptor) of the same molecule?
A: < 1 µM

Q: With `Cc1oc(-c2ccc(OC(F)F)cc2)cc1C(=O)Nc1ccc(CC(=O)NS(=O)(=O)c2cccs2)cc1` [Compound 29, 5-(4-Difluoromethoxy-phenyl)-2-methyl-furan-3-carboxylic acid {4-[2-oxo-2-(thiophene-2-sulfonylamino)-ethyl]-phenyl}-amide] as the molecule, how does the Ki (human EP3 receptor) read?
A: > 10 µM

Q: And the Ki (human EP2 receptor)?
A: > 3.16 µM

Q: What about the Ki (human EP4 receptor) of the same molecule?
A: < 0.1 µM

Q: Which results are given for `Cc1ccc(S(=O)(=O)NC(=O)Cc2ccc(NC(=O)c3cc(-c4ccc(OC(F)F)cc4)oc3C)cc2)nc1` [Compound 30, 5-(4-Difluoromethoxy-phenyl)-2-methyl-furan-3-carboxylic acid {4-[2-(5-methyl-pyridine-2-sulfonylamino)-2-oxo-ethyl]-phenyl}-amide]?
A: Ki (human EP3 receptor): > 10 µM; Ki (human EP2 receptor): > 1 µM; Ki (human EP4 receptor): < 0.1 µM

Q: What does the source list for `Cc1oc(-c2ccc(OC(F)F)cc2)cc1C(=O)Nc1ccc(CC(=O)NS(=O)(=O)Cc2ccccc2)cc1` [Compound 31, 5-(4-Difluoromethoxy-phenyl)-2-methyl-furan-3-carboxylic acid [4-(2-oxo-2-phenylmethanesulfonylamino-ethyl)-phenyl]-amide]?
A: Ki (human EP3 receptor): > 10 µM; Ki (human EP2 receptor): > 1 µM; Ki (human EP4 receptor): < 0.1 µM

Q: With `Cc1oc(-c2ccc(OC(F)F)cc2)cc1C(=O)Nc1ccc(CC(=O)NS(=O)(=O)c2ccccc2C(F)(F)F)cc1` [Compound 32, 5-(4-Difluoromethoxy-phenyl)-2-methyl-furan-3-carboxylic acid {4-[2-oxo-2-(2-trifluoromethyl-benzenesulfonylamino)-ethyl]-phenyl}-amide] as the molecule, how does the Ki (human EP3 receptor) read?
A: > 3.16 µM

Q: What about the Ki (human EP2 receptor) of the same molecule?
A: > 3.16 µM

Q: And the Ki (human EP4 receptor)?
A: < 0.1 µM

Q: For `Cc1oc(-c2ccc(OC(F)F)cc2)cc1C(=O)Nc1ccc(CC(=O)NS(=O)(=O)c2ccc(O)cc2)cc1` [Compound 35, 5-(4-Difluoromethoxy-phenyl)-2-methyl-furan-3-carboxylic acid {4-[2-(4-hydroxy-benzenesulfonylamino)-2-oxo-ethyl]-phenyl}-amide], which Ki (human EP3 receptor) is on record?
A: > 10 µM

Q: And the Ki (human EP2 receptor)?
A: > 3.16 µM

Q: What about the Ki (human EP4 receptor) of the same molecule?
A: < 0.1 µM

Q: What does the source list for `Cc1oc(-c2ccc(OC(F)F)cc2)cc1C(=O)Nc1ccc(CC(=O)NS(=O)(=O)c2ccccc2F)cc1` [Compound 36, 5-(4-Difluoromethoxy-phenyl)-2-methyl-furan-3-carboxylic acid {4-[2-(2-fluoro-benzenesulfonylamino)-2-oxo-ethyl]-phenyl}-amide]?
A: Ki (human EP3 receptor): > 10 µM; Ki (human EP2 receptor): > 1 µM; Ki (human EP4 receptor): < 0.1 µM

Source: patent US7417068B2, “EP4 receptor antagonists” (Asterand UK Limited, priority 2003, dated 2008)
